# Laboratory results taken from publication PMC9944328 (Nature Communications, 2023).
# Assays:
# [1] = test system: SSTR2 mutants; assay: SSTR2 internalization by ELISA, HEK293, 30 min 37 °C (mutants); assay type: cell-based, human; conditions: I284ECL3A, K291A, N276A, F294A, Bystander BRET or confocal
# Description: HEK293 cells were seeded into 96-well microplates at a density of 4 × 10^4 cells/well and cultured for 24 h at 37 °C with 5% CO2 and were transfected using the same procedure as the cAMP accumulation assay. The plates were washed with washing buffer (PBS) the day after transfection, and were fixed with 4% formalin at room temperature for 30 min. Cells were washed with washing buffer and blocked with PBS supplemented with 5% BSA for 1 h at room temperature. After that, cells were incubated with anti-Flag antibody (1:1000 diluted with PBS containing 5% BSA, Proteintech: 66008-4-Ig) for 1 h at room temperature. After 1 h incubation, cells were washed with washing buffer and incubating with HRP-conjugated secondary antibody for 2 h at room temperature. After incubating and washing, 50 μl of chromogenic solution was added to each well, and reacted at room temperature for 10 min, and then 0.5 M HCl were added to stop the reaction.
# All data presented are means at least three independent experiments.
# [2] = molecular target: SSTR2 mutants (Homo sapiens, UniProt P30874, W269A); assay: Bystander BRET endosomal trafficking (β-arrestin 1-Nluc, FYVE-mVenus), HEK293 (SSTR2 mutants);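 note: Read-out is the BRET ratio between Nluc-fused β-arrestin 1 and the early endosome marker FYVE-mVenus, measured after ligand addition with coelenterazine h as substrate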
# [3] = molecular target: SSTR2 mutants (Homo sapiens, UniProt P30874, I130A); assay: as above
# [4] = test system: SSTR2 mutants; assay: as above; conditions: for Fold of WT: Bystander BRET EC50; for EC50 / LogEC50 / Span / Top: best-fit value
# Chain of SSTR2 mutants (Homo sapiens, UniProt P30874, I130A) (P30874 whole entry I130A): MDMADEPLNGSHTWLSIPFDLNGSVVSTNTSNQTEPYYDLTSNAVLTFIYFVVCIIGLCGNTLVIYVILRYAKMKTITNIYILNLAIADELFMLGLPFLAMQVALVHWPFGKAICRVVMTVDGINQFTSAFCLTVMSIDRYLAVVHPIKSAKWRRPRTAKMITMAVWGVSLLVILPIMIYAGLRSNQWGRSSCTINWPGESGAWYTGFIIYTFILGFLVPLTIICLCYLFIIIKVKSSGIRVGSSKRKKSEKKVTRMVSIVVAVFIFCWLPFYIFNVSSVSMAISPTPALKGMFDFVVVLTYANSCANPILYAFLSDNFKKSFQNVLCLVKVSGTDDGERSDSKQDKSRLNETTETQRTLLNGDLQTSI
# Chain of SSTR2 mutants (Homo sapiens, UniProt P30874, W269A) (P30874 whole entry W269A, the tested form may be a part): as the sequence (P30874 whole entry I130A) above, with A130I, W269A counted along it
smiles,measurement,setting,value
N#Cc1cccc(-c2ccc3ncc(-c4cc(F)cc(F)c4)c(N4CCC(N)CC4)c3c2)c1O [paltusotine],Internalization of mutants,[1],slightly change in the internalization
same,EC50,[2],0.13 ± 0.00165 µM
same,Emax,[2]; HEK293,27.2 ± 2.61%
same,Bottom (best-fit),[2]; W269A-1 (run 1),-0.847
same,Bottom (best-fit),[2]; W269A-2 (run 2),-3.759
same,Bottom (best-fit),[2]; W269A-3 (run 3),0.08484
same,Bottom (best-fit),[3]; I130A-1 (run 1),-1.998
same,Bottom (best-fit),[3]; I130A-2 (run 2),0.9306
same,Bottom (best-fit),[3]; I130A-3 (run 3),-2.793
same,Fold of WT,[4]; SSTR2 F294(7.35)A,17.12
same,Fold of WT,[4]; SSTR2 I284ECL3A,0.73
same,Fold of WT,[4]; SSTR2 K291(7.32)A,0.73
same,Fold of WT,[4]; SSTR2 N276(6.55)A,1.19
same,Fold of WT,[4]; SSTR2 W269(6.48)A,1.06
same,LogEC50 (best-fit),[4]; I130A-1 (run 1),~ -2.099
same,Span (best-fit),[4]; I130A-1 (run 1),~ 8554
same,Top (best-fit),[4]; I130A-1 (run 1),~ 8552
same,LogEC50 (best-fit),[4]; I130A-2 (run 2),-9.856
same,Span (best-fit),[4]; I130A-2 (run 2),-10.4
same,Top (best-fit),[4]; I130A-2 (run 2),-9.472
same,LogEC50 (best-fit),[4]; I130A-3 (run 3),-9.469
same,Span (best-fit),[4]; I130A-3 (run 3),2.038
same,Top (best-fit),[4]; I130A-3 (run 3),-0.7545
same,LogEC50 (best-fit),[4]; P220A-1 (run 1),-6.735
same,Span (best-fit),[4]; P220A-1 (run 1),12.69
same,Top (best-fit),[4]; P220A-1 (run 1),13.21
same,LogEC50 (best-fit),[4]; P220A-2 (run 2),~ -2.138
same,Span (best-fit),[4]; P220A-2 (run 2),~ 22554
same,Top (best-fit),[4]; P220A-2 (run 2),~ 22557
same,LogEC50 (best-fit),[4]; P220A-3 (run 3),-6.08
same,Span (best-fit),[4]; P220A-3 (run 3),20.28
same,Top (best-fit),[4]; P220A-3 (run 3),17.78
same,LogEC50 (best-fit),[4]; R140A-1 (run 1),-8.331
same,Span (best-fit),[4]; R140A-1 (run 1),51.38
same,Top (best-fit),[4]; R140A-1 (run 1),50.75
same,LogEC50 (best-fit),[4]; R140A-2 (run 2),-8.178
same,Span (best-fit),[4]; R140A-2 (run 2),55.99
same,Top (best-fit),[4]; R140A-2 (run 2),44.7
same,LogEC50 (best-fit),[4]; R140A-3 (run 3),-8.181
same,Span (best-fit),[4]; R140A-3 (run 3),61.6
same,Top (best-fit),[4]; R140A-3 (run 3),61.78
same,LogEC50 (best-fit),[4]; W269A-1 (run 1),-6.886
same,Span (best-fit),[4]; W269A-1 (run 1),28.05
same,Top (best-fit),[4]; W269A-1 (run 1),27.2
same,LogEC50 (best-fit),[4]; W269A-2 (run 2),-6.322
same,Span (best-fit),[4]; W269A-2 (run 2),26.76
same,Top (best-fit),[4]; W269A-2 (run 2),23
same,LogEC50 (best-fit),[4]; W269A-3 (run 3),-6.81
same,Span (best-fit),[4]; W269A-3 (run 3),22.83
same,Top (best-fit),[4]; W269A-3 (run 3),22.91
same,LogEC50 (best-fit),[4]; Y312A-1 (run 1),-8.087
same,Span (best-fit),[4]; Y312A-1 (run 1),42.16
same,Top (best-fit),[4]; Y312A-1 (run 1),41.34
same,LogEC50 (best-fit),[4]; Y312A-2 (run 2),-7.939
same,Span (best-fit),[4]; Y312A-2 (run 2),49.41
same,Top (best-fit),[4]; Y312A-2 (run 2),47.36
same,LogEC50 (best-fit),[4]; Y312A-3 (run 3),-8.193
same,Span (best-fit),[4]; Y312A-3 (run 3),41.16
same,Top (best-fit),[4]; Y312A-3 (run 3),41.43
same,Internalization of microswitch mutants,[4]; alanine substitution of microswitch residues,reduced receptor internalization
same,EC50,[4]; F265A-1 (run 1),11.9 µM
same,LogEC50,[4]; F265A-1 (run 1),-4.926
same,Span,[4]; F265A-1 (run 1),10.7
same,Top,[4]; F265A-1 (run 1),10.68
same,LogEC50,[4]; F265A-2 (run 2),-7.219
same,Span,[4]; F265A-2 (run 2),0.6462
same,Top,[4]; F265A-2 (run 2),-7.332
same,EC50,[4]; F265A-3 (run 3),14.7 µM
same,LogEC50,[4]; F265A-3 (run 3),-4.832
same,Span,[4]; F265A-3 (run 3),19.35
same,Top,[4]; F265A-3 (run 3),19.15
same,EC50,[4]; F294A-1 (run 1),2.09 µM
same,LogEC50,[4]; F294A-1 (run 1),-5.679
same,Span,[4]; F294A-1 (run 1),94.38
same,Top,[4]; F294A-1 (run 1),95.1
same,EC50,[4]; F294A-2 (run 2),1.28 µM
